How the values were obtained:
Type in all cases: cell-based
[1] = tested on: Neurons (Neuronal Schwann Cells); experiment: Neuron growth on titanium (dendrite growth, GAP43 Q-PCR); details: titanium covalently modified with peptide
Text: […]

[2] = tested on: Human umbilical-vein endothelial cells; experiment: Endothelialization: adherent junctions (CD31) of endothelial cells on PET; details: PET covalently modified with peptide vs native PET, 36 hours
Experimental: (§1) The polymer used in this study is poly(ethylene terephthalate) (PET). The polymers were first treated in order to create —COOH (carboxyl) functions on the PET surfaces from —OH (hydroxyl) functions. Next, the PET-COOH samples were immersed in a solution of dimethylaminopropyl-3-ethylcarbodiimide hydrochloride (EDC, 0.2 M)+N-hydroxysuccinimide (NHS, 0.1 M) in 2-(N-morpholino)-ethanesulfonic acid (MES) buffer (0.1 M in MilliQ water) and the samples were rinsed in MilliQ water (50 mL for 30 min). The same protocol was used for all the polymers containing —OH (hydroxyl) functions on their extreme surface. Finally, the covalent immobilization of the peptides was achieved by using a solution of peptides/1×PBS (C=10^−3 M) incubated for 18 hours at room temperature. After grafting, the materials were rinsed in MilliQ water (100 ml) for 1 week.
An increase in the area of the adherent junctions (CD31) was observed after 36 hours of culture on the covalently modified PET (FIG. 13).

[3] = tested on: Human umbilical-vein endothelial cells; experiment: Angiogenesis: tube-like structure formation on PET; details: PET covalently modified with peptide, 18 hours
Experimental: as §1

[4] = tested on: mouse mesenchymal pre-osteoblastic cells (MC3T3-E1); experiment: Osteogenic differentiation of osteoblast progenitors (optical profilometry of extracellular matrix, Runx2 Q-PCR, Osteopontin immunostaining); details: apatite ceramics or type-I collagen sponge coupled with peptide vs native type-I collagen sponge, 48 hours
Experimental: The surface profiler system is a non-contact optical profiler that measures a wide range of surface heights. The vertical scanning interferometry mode allows for the measurement of rough surfaces and steps of up to several micrometers. This mode was used in order to measure the thickness of the extracellular matrix produced by the cells. First, after 24 h of culture, the cells were fixed with paraformaldehyde in PBS (4%) for 30 minutes at 4° C. and the samples were dehydrated in increasing concentrations of ethanol (30, 70, 80, 90, 95 and 100%) and critical-point dried. To evaluate the extent of the newly synthesized extracellular matrix, a spatula was used to scratch the surface of the materials. The samples were then metallized for 10 sec with gold or titanium before being analyzed.
The cells were first fixed for 20 min with 4% paraformaldehyde/PBS at 4° C. […]
Total RNA was extracted by using the RNeasy total RNA kit (Qiagen®) according to the manufacturer's instructions. […] Data were analyzed with the iCycler IQ™® software and compared by the ΔΔCt method. […]
The effect of the GFR-binding compounds as described herein (SEQ ID NO: 33) on the differentiation of osteoblast progenitors was evaluated. […]
An increase in the Runx2 gene expression after 24 hours of culture (FIG. 11) was observed by using Quantitative Real Time Polymerase Chain Reaction as described in the Methods section.

[5] = tested on: Human Mesenchymal Stem Cells (hMSCs); experiment: Osteogenic differentiation of human mesenchymal stem cells (Runx2/Osterix immunostaining, ALP activity); details: type-I collagen sponge coupled with peptide, 1 week of culture

CTVPKPSSAPTQLSPISILYIDAANNVVYKQYEDMVVRA (CTVPKPXXAPTQLSPISILYIDAANNVVYKQYEDMVVRA; GFR-binding peptide; MOD_RES (7), (8): Xaa is C or S) [SEQ ID NO: 49]
establishment of cell-cell contacts via dendrite growth ([1]; 6 hours): rapid establishment
Growth Associated Protein 43 (GAP43) gene expression (Q-PCR) ([1]; 48 hours): high level of expression

CVPTEERSVKVAKVRIKPHQGQHKEVQV (GFR-binding peptide) [SEQ ID NO: 38]
area of the adherent junctions (CD31) [2]: increase

CVPTEESNITMQIMRIKPHQGQHIGEMSFL (GFR-binding peptide) [SEQ ID NO: 39]
formation of tube-like structures [3]: formation of tube-like structures was observed

WWFWGASSAVSQELSAISMLYLGGGLKNYQDMQHN (GFR-binding peptide) [SEQ ID NO: 33]
production of extracellular matrix proteins such as Osteopontin (OPN) [4]: extensive amounts

WWFWGKASSVPTELSPISTLYKDENEKVVLKYHYDMVVEGSGSR (WWFWGKASSVPTELSPISTLYKDENEKVVLKYHYDMVVEGXGXR; GFR-binding peptide; MOD_RES (41), (43): Xaa is C or S) [SEQ ID NO: 32]
ALP (Alkaline Phosphatase) activity [5]: increase
